Measurements: patent EP0688218B1, “INTERLEUKIN-1 INHIBITOR” (OTSUKA PHARMACEUTICAL CO., LTD., priority 1993, dated 1994)

Tests used:
IL-1α = assay: Inhibition of LPS-stimulated IL-1α release in heparinized peripheral blood culture (ELISA); format: cell-based, human; details: Dose 3 x 10^-5 g/ml; 10% heparinized peripheral blood from healthy volunteer; LPS 3.3 µg/ml; 18 - 24 hours
Procedure: (§1) Method: A 10% heparinized prepheral blood from healthy volunteer, a test compound and lipopolysaccharide (LPS, 3.3 µg/ml) were suspended in RPMI-1640 medium supplemented with penicillin 100 units/ml and streptomycin […], and the mixture was incubated in a 5% CO2 atmosphere at 37°C for 18 - 24 hours. The supernatant of the culture was collected by centrifugation.
(§2) The IL-1α and IL-1β isolated from cells by stimulation with LPS were measured by enzyme-linked immunoassay (ELISA). That is, 96-well ELISA plate was coated with a mouse monoclonal antibody against human IL - 1α or human IL-1β, followed by blocking treatment, and thereto was added a test sample and it was subjected to reaction. […] After removing the unbound POD-conjugated antibody by washing, a substrate solution (containing ortho-phenylenediamine and hydrogen peroxide) was added and subjected to reaction, and thereafter, the absorbance at 492 nm was measured, and thereby the amounts of IL-1α and IL-1β were measured based on each standard curve. The ratio (%) of inhibition of IL-1 release was calculated by the following equation: IL-1 release inhibitory ratio (%) = 100 x (1-T/C) [formula] wherein T means the amount of IL-1 in the supernatant of culture incorporated with the test compound, and C means the amount of IL-1 in the supernatant of culture added only with the solvent.

IL-1β = assay: Inhibition of LPS-stimulated IL-1β release in heparinized peripheral blood culture (ELISA); format: cell-based, human; details: Dose 3 x 10^-5 g/ml; 10% heparinized peripheral blood from healthy volunteer; LPS 3.3 µg/ml; 18 - 24 hours
Procedure: as §1, §2

| Structure (SMILES) | IL-1α release inhibitory ratio (IL-1α) [%] | IL-1β release inhibitory ratio (IL-1β) [%] |
| --- | --- | --- |
| Cc1c(F)c(N2CCNC(C)C2)cc2c1c(=O)c(C(=O)O)cn2C1CC1 (stereo not shown) [Test compound 1, 7-(3-Methyl-1-piperazinyl)-1-cyclopropyl-6-fluoro-5-methyl-1,4-dihydro-4-oxoquinoline-3-carboxylic acid] | 93 | 96 |
| CC1CCc2c(N3CCC(O)CC3)c(F)cc3c(=O)c(C(=O)O)cn1c23 (stereo not shown) [Test compound 2, 9-Fluoro-8-(4-hydroxy-1-piperidinyl)-5-methyl-6,7-dihydro-1-oxo-1H,5H-benzo[ji]quinolidine-2-carboxylic acid] | 82 | 78 |
